From patent publication US12492181B2, “Gem-disubstituted piperidine melanocortin subtype-2 receptor (MC2R) antagonists and uses thereof” (Crinetics Pharmaceuticals, Inc., priority 2019, dated 2025)

biological target: T1, hMC2 receptor (crude hMC2R membranes from CRE-bla-CHO-K1 cells stably expressing hMC2 receptor and hMRAP accessory protein) (Homo sapiens, UniProt Q01718); assay: hMC2 membrane binding assay ([125I]ACTH (1-39) Tyr23, SPA); conditions: displacement of 0.2 nM [125I]ACTH (1-39) Tyr23 from hMC2R membranes, 1.5 hours at room temperature; read-out: MC2R binding potency
T1 construct: crude membrane fractions
T1 sequence (Q01718 whole entry): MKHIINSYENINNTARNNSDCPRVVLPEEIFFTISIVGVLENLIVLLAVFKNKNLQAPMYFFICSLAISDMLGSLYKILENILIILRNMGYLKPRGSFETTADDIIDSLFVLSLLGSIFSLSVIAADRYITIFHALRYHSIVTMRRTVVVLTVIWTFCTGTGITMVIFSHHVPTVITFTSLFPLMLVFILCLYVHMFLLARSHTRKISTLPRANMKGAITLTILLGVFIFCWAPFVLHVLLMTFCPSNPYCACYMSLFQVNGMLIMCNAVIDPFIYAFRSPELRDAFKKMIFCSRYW
T1 sequence (Q8TCY5 whole entry partner): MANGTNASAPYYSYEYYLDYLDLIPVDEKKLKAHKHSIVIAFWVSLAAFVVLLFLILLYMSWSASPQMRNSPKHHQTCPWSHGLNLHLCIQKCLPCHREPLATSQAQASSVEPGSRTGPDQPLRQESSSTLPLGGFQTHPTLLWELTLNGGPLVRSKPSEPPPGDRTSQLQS
Outline: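 Ki values come from non-linear regression of SPA scintillation counts, with compounds displacing [125I]ACTH(1-39) Tyr23. Membranes come from CRE-bla-CHO-K1 cells stably expressing hMC2 receptor together with hMRAP. They are preincubated with WGA-coated PVT SPA beads in 50 mM HEPES pH 7.4 with 0.20% BSA, Mg2+, Ca2+ and protease inhibitors.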

Row | Structure (SMILES) | Ki
1 | COc1ccccc1-c1ccc(C2(C(=O)NCC3CN(C)C3)CCN(c3ccc(C(F)(F)F)cc3C#N)CC2)cn1 [Compound 1-211, 1-[2-cyano-4-(trifluoromethyl)phenyl]-4-[6-(2-methoxyphenyl)pyridin-3-yl]-N-[(1-methylazetidin-3-yl)methyl]piperidine-4-carboxamide] | < 10 nM
2 | CN1CC[C@@H](NC(=O)C2(c3ccc(-c4ccccc4F)nc3)CCN(c3ccc(C(F)(F)F)cc3C#N)CC2)C1 [Compound 1-74, 1-[2-cyano-4-(trifluoromethyl)phenyl]-4-[6-(2-fluorophenyl)pyridin-3-yl]-N-[(3R)-1-methylpyrrolidin-3-yl]piperidine-4-carboxamide] | < 10 nM
3 | CCOc1ncccc1-c1ccc(C2(C(=O)NCCN(C)C)CCN(c3ccc(C(F)(F)F)cc3F)CC2)cn1 [Compound 1-222, N-[2-(dimethylamino)ethyl]-4-{2′-ethoxy-[2,3′-bipyridin]-5-yl}-1-[2-fluoro-4-(trifluoromethyl)phenyl]piperidine-4-carboxamide] | < 10 nM
4 | CN1CC[C@@H](NC(=O)C2(c3ccc(-c4cccc(F)c4)nc3)CCN(c3ccc(C(F)(F)F)cc3C#N)CC2)C1 [Compound 1-64, 1-[2-cyano-4-(trifluoromethyl)phenyl]-4-[6-(3-fluorophenyl)pyridin-3-yl]-N-[(3R)-1-methylpyrrolidin-3-yl]piperidine-4-carboxamide] | < 10 nM
5 | CN1CC[C@H](NC(=O)C2(c3ccc(-c4ccccc4C(F)F)nc3)CCN(c3ccc(C(F)(F)F)cc3C#N)CC2)C1 [Compound 1-151, 1-[2-cyano-4-(trifluoromethyl)phenyl]-4-{6-[2-(difluoromethyl)phenyl]pyridin-3-yl}-N-[(3S)-1-methylpyrrolidin-3-yl]piperidine-4-carboxamide] | < 10 nM
6 | CCOc1ncccc1-c1ccc(C2(NC(=O)C3CN(C)C3)CCN(c3ccc(Cl)cc3C#N)CC2)cn1 [Compound 2-37, N-[1-(4-chloro-2-cyanophenyl)-4-{2′-ethoxy-[2,3′-bipyridin]-5-yl}piperidin-4-yl]-1-methylazetidine-3-carboxamide] | < 10 nM
7 | COc1ccccc1-c1ccc(C2(C(=O)N[C@@H]3CN(C)C[C@H]3F)CCN(c3ccc(C(F)(F)F)cc3C#N)CC2)cn1 [Compound 1-243, 1-[2-cyano-4-(trifluoromethyl)phenyl]-N-[(3R,4R)-4-fluoro-1-methylpyrrolidin-3-yl]-4-[6-(2-methoxyphenyl)pyridin-3-yl]piperidine-4-carboxamide] | < 10 nM
8 | CCOc1ncccc1-c1ncc(C2(C(=O)N[C@H]3CCN(C)C3)CCN(c3ccc(C(F)(F)F)cc3C#N)CC2)cc1F [Compound 1-109, 1-[2-cyano-4-(trifluoromethyl)phenyl]-4-{2′-ethoxy-3-fluoro-[2,3′-bipyridin]-5-yl}-N-[(3S)-1-methylpyrrolidin-3-yl]piperidine-4-carboxamide] | < 10 nM
9 | CNCCNC(=O)C1(c2ccc(-c3cccn3C)nc2)CCN(c2ccc(C(F)(F)F)cc2C#N)CC1 [Compound 1-215, 1-[2-cyano-4-(trifluoromethyl)phenyl]-4-[6-(1-methyl-1H-pyrrol-2-yl)pyridin-3-yl]-N-[2-(methylamino)ethyl]piperidine-4-carboxamide] | < 10 nM
10 | COc1ccccc1-c1ccc(C2(C(=O)NC3CN(C)C3)CCN(c3ccc(Cl)cc3C#N)CC2)cn1 [Compound 1-92, 1-(4-chloro-2-cyanophenyl)-4-[6-(2-methoxyphenyl)pyridin-3-yl]-N-(1-methylazetidin-3-yl)piperidine-4-carboxamide] | < 10 nM
11 | CN1CC[C@H]1CNC(=O)C1(c2ccc(-c3cccn3C)nc2)CCN(c2ccc(C(F)(F)F)cc2C#N)CC1 [Compound 1-241, 1-[2-cyano-4-(trifluoromethyl)phenyl]-4-[6-(1-methyl-1H-pyrrol-2-yl)pyridin-3-yl]-N-{[(2S)-1-methylazetidin-2-yl]methyl}piperidine-4-carboxamide] | < 10 nM
12 | CNCCNC(=O)C1(c2cnc(-c3cccn3C)c(F)c2)CCN(c2ccc(C(F)(F)F)cc2Cl)CC1 [Compound 1-310, 1-[2-chloro-4-(trifluoromethyl)phenyl]-4-[5-fluoro-6-(1-methyl-1H-pyrrol-2-yl)pyridin-3-yl]-N-[2-(methylamino)ethyl]piperidine-4-carboxamide] | < 10 nM
13 | CCOc1ncccc1-c1ccc(C2(NC(=O)O[C@@H]3CCN(C)C3)CCN(c3ccc(C(F)(F)F)cc3C#N)CC2)cc1 [Compound 2-12, (3R)-1-methylpyrrolidin-3-yl N-{1-[2-cyano-4-(trifluoromethyl)phenyl]-4-[4-(2-ethoxypyridin-3-yl)phenyl]piperidin-4-yl}carbamate] | 10 to 100 nM
14 | COc1ccccc1-c1ncc(C2(NC(=O)O[C@@H]3CCN(C)C3)CCN(c3ccc(C(F)(F)F)cc3C#N)CC2)cc1F [Compound 2-50, (3R)-1-methylpyrrolidin-3-yl N-{1-[2-cyano-4-(trifluoromethyl)phenyl]-4-[5-fluoro-6-(2-methoxyphenyl)pyridin-3-yl]piperidin-4-yl}carbamate] | < 10 nM
15 | CCOc1ncccc1-c1ccc(C2(C(=O)NCCN)CCN(c3ccc(C(F)(F)F)cc3C#N)CC2)cn1 [Compound 1-13, N-(2-aminoethyl)-1-[2-cyano-4-(trifluoromethyl)phenyl]-4-{2′-ethoxy-[2,3′-bipyridin]-5-yl}piperidine-4-carboxamide] | < 10 nM
16 | CN1CC[C@H](OC(=O)NC2(c3ccc(-c4cccn4C)nc3)CCN(c3ccc(C(F)(F)F)cc3C#N)CC2)C1 [Compound 2-42, (3S)-1-methylpyrrolidin-3-yl N-{1-[2-cyano-4-(trifluoromethyl)phenyl]-4-[6-(1-methyl-1H-pyrrol-2-yl)pyridin-3-yl]piperidin-4-yl}carbamate] | < 10 nM
17 | CNCCNC(=O)C1(c2cnc(-c3ccccc3OC)c(F)c2)CCN(c2ccc(C(F)(F)F)cc2Cl)CC1 [Compound 1-294, 1-[2-chloro-4-(trifluoromethyl)phenyl]-4-[5-fluoro-6-(2-methoxyphenyl)pyridin-3-yl]-N-[2-(methylamino)ethyl]piperidine-4-carboxamide] | 10 to 100 nM
18 | CCOc1ncccc1-c1ccc(C2(C(=O)N[C@H]3CCN(C)C3)CCN(c3ccc(C(F)(F)F)cc3F)CC2)cn1 [Compound 1-186, 4-{2′-ethoxy-[2,3′-bipyridin]-5-yl}-1-[2-fluoro-4-(trifluoromethyl)phenyl]-N-[(3S)-1-methylpyrrolidin-3-yl]piperidine-4-carboxamide] | < 10 nM
19 | CN1CC[C@@H](NC(=O)C2(c3ccc(-c4cc5ccccc5n4C)nc3)CCN(c3ccc(C(F)(F)F)cc3C#N)CC2)C1 [Compound 1-191, 1-[2-cyano-4-(trifluoromethyl)phenyl]-4-[6-(1-methyl-1H-indol-2-yl)pyridin-3-yl]-N-[(3R)-1-methylpyrrolidin-3-yl]piperidine-4-carboxamide] | 10 to 100 nM

The remaining lines, values ahead:

Row | Ki | Structure (SMILES)
20 | 10 to 100 nM | CCOc1ncccc1-c1ccc(C2(NCCNC)CCN(c3ccc(C(F)(F)F)cc3C#N)CC2)cn1 [Compound 2-15, 2-(4-{2′-ethoxy-[2,3′-bipyridin]-5-yl}-4-{[2-(methylamino)ethyl]amino}piperidin-1-yl)-5-(trifluoromethyl)benzonitrile]
21 | < 10 nM | CCOc1ccccc1-c1ccc(C2(C(=O)N[C@H]3CCN(C)C3)CCN(c3ccc(F)cc3C#N)CC2)cn1 [Compound 1-96, 1-(2-cyano-4-fluorophenyl)-4-[6-(2-ethoxyphenyl)pyridin-3-yl]-N-[(3S)-1-methylpyrrolidin-3-yl]piperidine-4-carboxamide]
22 | 10 to 100 nM | CCOc1ncccc1-c1ccc(C2(NC(=O)[C@@H]3CCCN3C)CCN(c3ccc(C(F)(F)F)cc3C#N)CC2)cc1 [Compound 2-11, (2S)—N-{1-[2-cyano-4-(trifluoromethyl)phenyl]-4-[4-(2-ethoxypyridin-3-yl)phenyl]piperidin-4-yl}-1-methylpyrrolidine-2-carboxamide]
23 | 10 to 100 nM | CN(C)C1(CNC(=O)C2(c3ccc(-c4cccn4C)nc3)CCN(c3ccc(C(F)(F)F)cc3C#N)CC2)CC1 [Compound 1-263, 1-[2-cyano-4-(trifluoromethyl)phenyl]-N-{[1-(dimethylamino)cyclopropyl]methyl}-4-[6-(1-methyl-1H-pyrrol-2-yl)pyridin-3-yl]piperidine-4-carboxamide]
24 | < 10 nM | COc1ccc(F)cc1-c1ccc(C2(C(=O)N[C@@H]3CCN(C)C3)CCN(c3ccc(C(F)(F)F)cc3C#N)CC2)cn1 [Compound 1-81, 1-[2-cyano-4-(trifluoromethyl)phenyl]-4-[6-(5-fluoro-2-methoxyphenyl)pyridin-3-yl]-N-[(3R)-1-methylpyrrolidin-3-yl]piperidine-4-carboxamide]
25 | 10 to 100 nM | CCOc1ncccc1-c1ccc(C2(C(=O)N[C@@H]3CCN(C)C3)CCN(c3ccc(C(F)(F)F)cc3C)CC2)cc1 [Compound 1-164, 4-[4-(2-ethoxypyridin-3-yl)phenyl]-1-[2-methyl-4-(trifluoromethyl)phenyl]-N-[(3R)-1-methylpyrrolidin-3-yl]piperidine-4-carboxamide]
26 | < 10 nM | Cc1occc1-c1ccc(C2(C(=O)N[C@H]3CCN(C)C3)CCN(c3ccc(C(F)(F)F)cc3C#N)CC2)cn1 [Compound 1-120, 1-[2-cyano-4-(trifluoromethyl)phenyl]-4-[6-(2-methylfuran-3-yl)pyridin-3-yl]-N-[(3S)-1-methylpyrrolidin-3-yl]piperidine-4-carboxamide]
27 | < 10 nM | COc1nc2ccccc2cc1-c1ccc(C2(C(=O)N[C@@H]3CCN(C)C3)CCN(c3ccc(C(F)(F)F)cc3C#N)CC2)cn1 [Compound 1-189, 1-[2-cyano-4-(trifluoromethyl)phenyl]-4-[6-(2-methoxyquinolin-3-yl)pyridin-3-yl]-N-[(3R)-1-methylpyrrolidin-3-yl]piperidine-4-carboxamide]
